Results published in article PMC9684134, “In vitro biochemical assessment of mixture effects of two endocrine disruptors on INS-1 cells” (Scientific Reports, 2022).
Where two headings read alike, the source gives them in different places.

Columns and labels:
[1] = test system: INS-1 cells; assay: Glucose-galactose cytotoxicity assay (MTT); settings: for IC50: Rattus norvegicus, INS1, 48 h
Method: Sub-culturing was in ratio 4:3. Cell density was 15,000 cells/well and treated with 200 µL of the test solution that was solubilized in glucose-free RPMI medium supplemented with 5 mM glucose or 5 mM galactose. The cells were incubated further for 48 h. The spent medium was replaced with 100 µL glucose in RPMI medium. 2,4-dinitrophenol served as positive control. The cells were finally loaded with MTT as in section “Cell viability assay” but incubation took 120 min.

[2] = test system: INS-1 cells; assay: Oxidative stress: reduced glutathione by ThiolTracker Violet staining; format: cell-based, rat; settings: 48 h; for Glutathione levels (oxidative stress summary): Table 3 summary, low and high concentration
Method: (§1) The spent medium in section “Treatment of INS-1 cells” was removed and 50 µL CellROX staining solution was added to each well according to the manufacturer’s instructions and incubated at 37 °C for 30 min. Images from nine sites per well were acquired using filter sets appropriate for DAPI (4′, 6-diamidino-2-phenylindole) and TRITC (tetramethylrhodamine-isothiocyanate) which were the fluorophors. Image acquisition was done on ImageXpress Micro XLS and analyzed using the Multi-Wavelength Scoring software (Molecular Devices). In another experiment 50 µL ThiolTracker Violet staining solution was put in each well and incubated at 37 °C for 20 min. Images from nine sites per well were acquired using filter sets appropriate for DAPI and CY5 (amine reactive fluorescent dye). Image acquisition and data analysis were as done for the CellROX orange reagent. Excitation/Emission wavelength was at 545/565 nm.

[3] = test system: caspase 3 activation in INS-1 cells; assay: Caspase-3 activation assay; format: cell-based, rat; settings: 48 h
Method: Additional 100 µL test compounds were solubilized in the medium and incubated for 48 h. The spent medium was replaced with 100 µL of fix solution (4% formaldehyde in phosphate-buffered saline (PBS) and was fixed overnight; the cells were permeabilized with ice cold methanol, then washed with PBS and blocked using 1% BSA followed by incubation with the primary antibody at 1:200 dilution in blocking buffer for 2 h. The excess antibody was removed by washing with blocking buffer. Incubation was thereafter carried out with secondary antibody (FITC labelled) for 30 min and later washed with blocking buffer to remove excess antibody. Images from nine sites per well were acquired using filter sets appropriate for DAPI and FITC. Image analysis was done as in previous experiments.

[4] = test system: INS-1 cells
Method: (§2) TMRE is a cell permeable cationic dye that accumulates in the mitochondrial matrix according to mitochondrial membrane potential (ΔψM). Staining solution was prepared by adding 5 mL PBS, 50 µL TMRE working solution and 2 µL Hoechst 33342 solution to 5 mL of RPMI. The spent medium was removed and 50 µL staining solution was put in each well and incubated for 30 min at 37 °C. Image acquisition and data analysis were done as indicated.

[5] = test system: INS-1 cells; assay: Glucose stimulated calcium influx (Fluo-4); format: cell-based, rat; settings: 20 mM glucose stimulation; for Intracellular calcium levels (summary): Table 3 summary, 24 h incubation; for Glucose stimulated intracellular calcium flux compared with the Blank: positive controls
Method: Fluo-4 dye is specific for intracellular Ca^2+ concentration. On binding calcium, the green fluorescence intensity increases by more than 100 folds (excitation/emission 494/[…]). Incubation was for 24 h. Staining solution was prepared by adding 20 µL Flou-4 stock solution (1 mM in DMSO) and 2 µL Hoechst solution to 10 mL of PBS. After staining, incubation was done for 30 min at 37 °C. The stain solution was removed and replaced with 50 µL PBS. Incubation was further carried out at room temperature for 20 min. Difference in fluorescence intensity between wells containing glucose and those without glucose represents calcium influx in response to glucose. Just prior to image acquisition, 20 mM glucose was added to four of the eight replicate wells and incubated at room temperature for 10 min. Image acquisition and data analyses were done as usual. Filter sets appropriate for DAPI and FITC were also used. Diazoxide and Glibenclamide were used as the positive controls.

[6] = test system: INS-1 cells; assay: Mitochondrial mass (MitoTracker Green staining); format: cell-based, rat; settings: 48 h; for Mitochondrial mass (summary): Table 3 summary, all concentrations
Method: Staining solution consisted of 10 mL of PBS to which was added 1 µL MitoTracker Green (MTG) stock (1 mM in DMSO) and 2 µL Hoechst solution (10 mg/mL in DMSO). Spent medium was removed and 50 µL staining solution added to each well (96 wells) followed by incubation at 37 °C for 20 min.

[7] = test system: INS-1 cells; assay: Oxidative stress: ROS by CellROX orange staining; format: cell-based, rat; settings: Table 3 summary, low and high concentration, 48 h
Method: as §1

[8] = Cell viability assay (MTT); format: cell-based; settings: rat
Method: INS-1 cells were routinely grown at 5% CO2, 95% air at 37 °C in RPMI-1640 containing 11.1 mM glucose and supplemented with 10% foetal calf serum (FCS), 1 mM pyruvate, 10 mM 4-(2-hydroxyethyl)-1-piperazine ethane sulphonic acid (HEPES), 50 µM 2-mercaptoethanol, 100 U penicillin/mL and 100 µg streptomycin/mL. Sub-confluent cultures were trypsinized to dislodge the cells and sub-cultured at a ratio of 1:3 or 1:0.75 in other experiments. INS-1 cells were seeded into a 96-well plate at densities of 10 000, 15 000 or 30,000 cells/well. They were allowed to attach at 37 °C overnight.
The cells were incubated for 48 h with test compounds containing 20 µM or 30 µM 4-tOP and 8 µM or 12.5 µM TCS. Combination treatments (4-tOP + TCS) were 12.5 µM or 25 µM at 1:1 ratio.
Cell viability was assessed by a principle of enzymatic reduction of 3-[4, 5-dimethylthiazole-2-yl]-2, 5-diphenyltetrazolium bromide (MTT) to formazan. The treated cells respectively were loaded with 20 µL 0.5 mg/mL MTT and incubated at 37 °C for 3 h. […] The absorbance of the purple-coloured formazan was measured at 540 nm on microplate reader. IC50, (the median inhibitory concentration) was calculated with GraphPad Prism software. Data were expressed as a percentage of control.
Results were expressed as means ± SD from at least three replicate measurements. The difference between means was analyzed with ANOVA, α value = 0.05. […]

[9] = test system: INS-1 cells; assay: Glucose uptake assay (glucose oxidase); format: cell-based, rat; settings: Table 3 summary, low and high concentration, 48 h
Method: Glucose uptake was determined in INS-1 cells by monitoring the levels of glucose remaining in the culture medium after a selected treatment period. The cell density was 30 000 per well; one row was without cells to serve as maximum glucose content. Spent medium was removed and the cells were treated with 100 µL of the test compounds at concentrations indicated in section “Treatment of INS-1 cells”. The cells were incubated for a further 48 h and 5µL spent culture medium was thereafter transferred to a new plate of 96 wells and 200 µL glucose oxidase reagent added. Incubation was at 37 °C for 20 min and absorbance was read at 520 nm. Glucose uptake was obtained as the difference in glucose concentration between wells without cells and those with cells and respective treatments.

[10] = test system: INS-1 cells; format: cell-based, rat; settings: for Annexin PI: mode of cell death (summary): Table 3 summary
Method: The treated cells were sub-cultured at 4:3. Annexin V-FITC staining assay was performed as recommended by the manufacturer. Melphalan (Mel) and Etoposide (Etop) served as the positive controls. Incubation lasted 48 h. The spent medium was removed and 50 µL PI staining solution was in each well and incubated for 15 min at 37 °C followed by image acquisition and data analysis as in previous experiments. Images from nine sites per well were acquired using filter sets appropriate for DAPI, FITC and Texas red dyes.

[11] = test system: INS-1 cells; assay: Mitochondrial membrane potential (TMRE staining); settings: 48 h
Method: as §2

[12] = test system: HepG2 human liver cells; set-up: method as in PMID 27459410; settings: cited from earlier work
[13] = set-up: method as in PMID 9894786; settings: Ca2+-dependent binding to phosphatidylserine; cited from earlier work
[14] = high concentration (12.5 µM TCS, 30 µM 4-tOP, 25 µM Mix), 48 h
[15] = low concentration (8 µM TCS, 20 µM 4-tOP, 12.5 µM Mix), 48 h

O=[N+]([O-])c1ccc(O)c([N+](=O)[O-])c1 [2,4-Dinitrophenol, 2,4-dinitrophenol, reference compound]
IC50 ([1]; read-out: IC50 Galactose): 24.5 µM
IC50 ([1]; read-out: IC50 Glucose): 46 µM

CC(C)(C)CC(C)(C)c1ccc(O)cc1 [4-tert-Octylphenol]
Glutathione levels (oxidative stress summary) [2]: Decrease glutathione levels corroborated ROS production
Caspase 3 activation compared with the Blank ([3]; test substances): Increase in caspase 3 activation not substantial
Mitochondrial membrane potential MMP (summary) [4]: The increase in MMP was not substantial
Intracellular calcium levels (summary) [5]: No significant changes in glucose stimulated intracellular calcium levels
Mitochondrial mass (summary) [6]: No substantial change in mitochondrial content at all concentrations relative to the untreated cells
ROS (oxidative stress summary) [7]: Dose dependent increase in ROS but variation high hampering statistical significance
IC50 at 48 h [8]: 32.5 µM
IC50 ([1]; read-out: IC50 Galactose): 34.5 µM
IC50 ([1]; read-out: IC50 Glucose): 33.4 µM
Glucose-galactose differential cytotoxicity (summary) ([1]; rat, 48 h): Higher IC50 in galactose than in glucose
Glucose uptake (summary) [9]: Consumption pattern as with T. No significant change in glucose consumption
Induction of apoptosis compared with the Blank ([10]; 20 µM or 30 µM, 48 h): failed to significantly induce apoptosis
Annexin PI: mode of cell death (summary) [10]: Cell death by 4-tOP was by necrosis
Proportion of live cells [10, 14]: 73.8%
Cell death by necrosis compared with the Blank ([10]; high concentration (30 µM 4-tOP), 48 h): significantly underwent necrosis
Proportion of live cells [10, 15]: 81.4%

CC1=NS(=O)(=O)c2cc(Cl)ccc2N1 [Diazoxide, reference compound]
Glucose stimulated intracellular calcium flux compared with the Blank [5]: significantly increased intracellular calcium flux

COc1cc([C@@H]2c3cc4c(cc3[C@@H](O[C@@H]3O[C@@H]5CO[C@@H](C)O[C@H]5[C@H](O)[C@H]3O)[C@H]3COC(=O)[C@H]23)OCO4)cc(OC)c1O [Etoposide, reference compound]
GSH compared with the Blank ([2]; positive control 40 µM): significant reduction of GSH
Caspase 3 activation compared with the Blank ([3]; positive control 40 µM): significant increases in caspase 3 activation
Proportion of cells died by apoptosis ([10]; positive control 40 µM, 48 h): 17.4%
Proportion of live cells ([10]; positive control 40 µM, 48 h): 42.5%

COc1ccc(Cl)cc1C(=O)NCCc1ccc(S(=O)(=O)NC(=O)NC2CCCCC2)cc1 [Glibenclamide, reference compound]
Glucose stimulated intracellular calcium flux compared with the Blank [5]: significantly increased intracellular calcium flux

N[C@@H](Cc1ccc(N(CCCl)CCCl)cc1)C(=O)O [Melphalan, reference compound]
GSH compared with the Blank ([2]; positive control 40 µM): significant reduction of GSH
Mitochondrial mass relative to the Blank ([6]; positive control 40 µM): significantly increased mitochondrial mass
Proportion of cells died by apoptosis ([10]; positive control 40 µM, 48 h): 15.7%
Proportion of live cells ([10]; positive control 40 µM, 48 h): 34.5%
Mitochondrial membrane potential ΔΨM (MMP) compared to the Blank ([11]; positive control 40 µM): Significant loss of mitochondrial membrane potential

Oc1cc(Cl)ccc1Oc1ccc(Cl)cc1Cl [Triclosan]
Glutathione levels (oxidative stress summary) [2]: Decreased glutathione levels corroborated ROS production
GSH compared with the Blank ([2]; high concentration (12.5 µM TCS)): significant reduction of GSH
IC50 [12]: 24.5 µM
Caspase 3 activation compared with the Blank ([3]; test substances): Increase in caspase 3 activation not substantial
Intracellular calcium levels (summary) [5]: The reduction in glucose stimulated intracellular calcium flux was not substantial
Mitochondrial mass (summary) [6]: No substantial change in mitochondrial content at all the concentrations relative to the untreated cells
ROS (oxidative stress summary) [7]: Dose dependent increase in ROS but variation high hampering statistical significance
IC50 at 48 h ([8]; INS-1 cells, MTT, 48 h, read-out: IC50 for cytotoxicity against INS-1 cells): 12.7 µM
IC50 ([1]; read-out: IC50 Galactose): 8.23 µM
IC50 ([1]; read-out: IC50 Glucose): 11.7 µM
Glucose-galactose differential cytotoxicity (summary) ([1]; Table 3 summary): Increased cytotoxicity in galactose medium indicative of potential mitochondrial toxicity
Glucose uptake (summary) [9]: Decreased glucose consumption at high concentration, increase at low concentration but not substantial compared with Blank
Annexin PI: mode of cell death (summary) [10]: TCS induced cell death by apoptosis
Proportion of cells died by apoptosis ([10]; high concentration (12.5 µM TCS, 25 µM Mix), 48 h): 16.6%
Proportion of live cells [10, 14]: 43.7%
Proportion of live cells [10, 15]: 81.2%
Mitochondrial membrane potential MMP (summary) ([11]; Table 3 summary): Significant decrease in MMP at the high concentration. only
Mitochondrial membrane potential ΔΨM (MMP) compared to the Blank ([11]; high concentration (12.5 µM TCS, 25 µM Mix)): Significant loss of mitochondrial membrane potential

Annexin V: 35 kDa Ca2+-dependent phospholipid binding protein used to detect phosphatidylserine
Kd [13]: 0.007 µM
